Experimental data from patent publication US9517221B2, “(2R)-2-propyloctanoic acid for functional brain disease” (ONO PHARMACEUTICAL CO., LTD., priority 2006, dated 2016).

Experiments:
Type in all cases: in vivo, rat
SD rats = test: Water-immersion stress-loaded elevated plus maze test (Test Example 1); details: oral, 1 hour before test, written in present tense
Procedure: Two open arms of the same length (50×10 cm) and two closed arms of the same length (50×10 cm) (a wall of 30 cm is set) are set crossing at a right angle at a height of 50 cm from the floor and used as an elevated plus maze apparatus. Constant lighting is effected by attaching white lights to 70 cm over both of the open arms.
Using a pool (40×30×38 cm) charged with water of 22° C. to a depth of 25 cm, 120 seconds of forced swimming is loaded on SD rats of 7 weeks of age (Charles River Japan). After 9 minutes of the water-immersion stress-loading, the rats are allowed to stand still on a central part of the apparatus, and the behavior of the rats are analyzed for 5 minutes by an automatic behavior tracing analysis system (EthoVision Version 3.0, Noldus Information Technology) to calculate its staying time (second) on the open arms.
In this connection, rats of the control group are not subjected to the water-immersion stress-loading. Also, a vehicle is orally administered to the vehicle treating group 1 hour before the commencement of the test, and a test drug of various concentrations is administered to the test drug treating group.

Wistar male rats = test: Confirmation test of anti-stress activity (Test Example 2); details: oral, 30 minutes before stress loading; counted 1 hour thereafter; present tense
[1] = test system: olfactory bulbectomized rats; test: Influence upon anxiolytic behavior on an elevated plus maze in olfactory bulbectomized rats (Test Example 4-3); details: once a day for 8 days; test 2 hours after administration; present tense
Excerpt: Wistar male rats are used in the test. By fixing the head of each rat under pentobarbital sodium anesthesia to a brain stereotaxic apparatus, the head skin is incised and then holes are opened at right and left olfactory bulb regions using a dental drill to suck and remove the right and left olfactory bulbs using an aspirator. The head skin is stitched thereafter. In this connection, the suction and removal of olfactory bulbs are not carried out in the sham-operation group, and the head skin is stitched after opening holes at right and left olfactory bulb regions. […]
An elevated plus maze apparatus consisting of a open arm without a wall and a closed arm having a wall is used in the test. […] The anxiolytic behavior is analyzed from the pictures of a video camera by a video picture behavior analysis device.
The vehicle and test drug are repeatedly administered once a day for 8 days. […] After 2 hours of the administration, the animal is softly put on the platform toward one of the open arms and measured for 5 minutes. […] The items (1) to (6) shown below are measured using the video picture behavior analysis device, and (7) and (8) are counted after completion of the measurement. […]

For `CCCCCC[C@@H](CCC)C(=O)O` [(2R)-2-propyloctanoic acid], the “Staying time on the open arms versus vehicle treating group” value (SD rats) was “prolongs the staying time on the open arms”, the “Number of defecations versus vehicle treating group” value (Wistar male rats) was “significantly suppress the number of defecations” and the “Anxiolytic behavior versus vehicle treating group” value [1] was “suppresses the anxiolytic behavior”.
